This note sets out measurements from patent US12691101B2, “Compound and method for preventing or treating of respiratory diseases comprising the same as an active ingredient” (YONSEI UNIVERSITY, UNIVERSITY - INDUSTRY FOUNDATION (UIF), priority 2019, dated 2026).

One data set has as its system AN01, CFTR and ENaC mRNA. As to the kind of experiment: Real-time PCR of AN01, CFTR and ENaC mRNA in IL-4-treated HNE cells. The format is cell-based, human. The settings on record: long-term treatment (F10: 120 hours). The procedure: The total messenger RNA (mRNA) was extracted using TRIzol reagent (Invitrogen, Carlsbad, CA, USA), and was reverse-transcribed using a random hexamer primer, an oligo(dT) primer and SuperScript® III reverse transcriptase (Invitrogen). Quantitative real-time PCR was performed using StepOnePlus Real-Time PCR system (Applied Biosystems, Foster City, CA, USA) and Thunderbird SYBR qPCR mix (Tokyobo, Osaka, Japan). Thermal cycling conditions included the initial stage at 95° C. for 5 minutes, and subsequent 40 cycles at 95° C. for 10 seconds, at 55° C. for 20 seconds and at 72° C. for […].
In general terms: Real-time PCR tracks product formation cycle by cycle.

The subject of data set [1] is OVA-sensitized and challenged mice. The data set can be described thus: OVA-induced allergic asthma mouse model. To be noted: for OVA-induced airway sensitivity / airway resistance: pretreatment, F56 10 mg/kg i.p. 12 hours before OVA challenge, methacholine. The format is in vivo. The method, then: (A) Protocol of induction of allergic airway inflammation solution after allergen antigen challenge in a wild-type mouse and time course. F56 (10 mg/kg three times/day) was applied after tertiary OVA challenge. (B) Airway reactivity measured by whole body plethysmography in an OVA-induced asthma model. Penh was measured in response to an increased dose of methacholine (mean±S.E., n=4). (C) Representative PAS staining of airway tissue. Size bar, 100 μm. (D) Summary of PAS positive cells (mean±S.E., n=4). * P<0.05.
Experiments were performed using 8-week-old BALB/c mice. The experimental protocol was approved by the Animal Ethics Committee of Yonsei University. Mice were housed and maintained in an animal facility under standard laboratory conditions [12/12 hours light/dark cycle, controlled temperature (21±2° C.) and humidity (55±5%) and access to any food and water]. All the experiments were performed according to the guidelines of Yonsei University Animal Research Committee. Mice were divided to 3 groups, vehicle group (vehicle-treated PBS-sensitized and challenged mice), OVA group (vehicle-treated OVA-sensitized and challenged mice) and OVA+F56 group (F56-treated OVA-sensitized and challenged mice). Age and sex-matched 8-week-old mice were sensitized by i.p. injection of OVA (Sigma-Aldrich) on Days 0 and 14. The sensitization emulsion was composed of 50 μg OVA and 2 mg aluminum potassium sulfate in 200 μL saline solution. On Days 21, 22 and 23, sensitized mice were lightly anesthetized by isoflurane inhalation and challenged with 100 μg OVA in 30 μL saline solution administered intranasally. The control mice were treated in the same manner as PBS. F56 (10 mg/kg) was administered by i.p injection 12 hours before i.n. OVA challenge, respectively.
The airway response for methacol (MCh) 24 hours after the last OVA exposure was measured using FlexiVent system (Scireq, Montreal, QC, Canada). Mice were anesthetized by intraperitoneal injection of the mixture of Zoletil (30 mg/kg; Virbac Laboratories, Carros, France) and Rompun (10 mg/kg; Bayer, Leverkusen, Germany), and then tracheostomy was performed to connect to FlexiVent. The base line airway resistance was measured after spraying saline solution for 10 seconds using Aeroneb ultrasonic nebulizer (SCIREQ). After measuring the base line, the mice were exposed to nebulized methacholine at an increased concentration (0, 1.56, 3.13, 6.25, 12.5 and 25 mg/mL). In addition, using whole body plethysmography (Buxco, Miami, FL, USA), the bronchial airway responsibility was measured. As a major index of the airway responsibility, enhanced pause (Penh) was used. Under the base line condition, Penh was measured for 2 minutes. Then, the mice were exposed to inhalation of PBS or MCh (25 mg/mL) for 2 minutes. The Penh result was expressed as an absolute value.
After evaluation of the airway responsiveness, BAL was performed. The cells were pelleted by centrifugation and resuspended in PBS to obtain the number of cells. Cytospin was prepared with a cell centrifuge (Shandon Cytospin 4 cell centrifuge; Thermo Scientific, MA, USA, USA) and stained with Diff-Quik Stain Set (Dade Behring, USA, DE, USA) to evaluate inflammation.
For evaluation of airway inflammation, left lung was fixed in 4% paraformaldehyde overnight and embedded in paraffin. A histological slide was prepared from 5-μm section, and stained with hematoxylin and eosin (H&E). The inflammation score showing the severity of bronchial inflammation was evaluated by 3 blind observers using a method reported conventionally. To evaluate goblet cell hyperplasia, the section was stained with periodic acid-Schiff (PAS) using PAS staining kit (Sigma-Aldrich), according to the manufacturer's protocol. The nasal cavity mucous membrane and HNE cells collected on the transwell were softly washed with PBS and fixed with 4% paraformaldehyde. […]

Another data set concerns CHO-K1 cells. As to the kind of experiment: Cell viability, MTS colorimetric analysis, CHO-K1. The format is cell-based, Chinese hamster. The settings on record: 24 hours, up to 30 μM. The procedure: (A) Pendrin-mediated Cl^−/I^− exchange activity (mean±S.E., n=5). The indicated concentration of F56 was pretreated for 10 minutes. (B, C) Representative tracing of intracellular pH. The application of Cl^− free solution induced intracellular alkalization through pendrin-mediated Cl^−/HCO3^− and Cl^−/OH^− exchange activity. The indicated concentration of F56 was pretreated for 10 minutes. (D-F) The pendrin-mediated Cl^−/I^− exchange activity was measured in CHO-K1 cells expressing human pendrin. The indicated concentration of F56, PDSinh-A01 and PDSinh-C01 was pretreated for 10 minutes. (G) Summary of dose-response of F56, PDSinh-A01 and PDSinh-C01 (mean±S.E., n=3). (H, I) Effect of F56, PDSinh-A01 and PDSinh-C01 on the cell viability in NIH3T3 (H) and CHO-K1 (I) cells. The cells were treated with F56, PDSinh-A01 and PDSinh-C01 for 24 hours. The cell viability was measured by MTS colorimetric analysis (mean±S.E., n=3). NTC, non-transfected cells.
The cells were treated with F10 for 24 hours. The cell viability was determined by MTS colorimetric analysis (mean±S.E., n=3).

Setting [2] is: established model of allergic asthma, 10 mg/kg three times/day after tertiary OVA challenge.

For the molecule `CC(C)(C)c1ccc(C2=NC(=Cc3ccc[nH]3)C(=O)O2)cc1` [F10, 4-((1H-pyrrol-2-yl)methylene)-2-(4-(tert-butyl)phenyl)oxazol-5 (4H)-one], in the data set on AN01, CFTR and ENaC mRNA, the “mRNA expression of AN01, CFTR and ENaC” value is on record as “did not show any effect”. Also, the “OVA-induced airway sensitivity / airway resistance” value in data set [1] is “reduced the airway resistance”. The “cytotoxicity in CHO-K1 cells” value with CHO-K1 cells is on record as “did not show any cytotoxicity up to 30 μM”.

With `CC(C)(C)c1ccc(C2=NC(=Cc3cccs3)C(=O)O2)cc1` [F56, 2-(4-(tert-butyl)phenyl)-4-(thiophen-2-ylmethylene)oxazol-5(4H)-one], the “mRNA expression of AN01, CFTR and ENaC” value in the data set on AN01, CFTR and ENaC mRNA is “did not change”. The “serum level of OVA-specific IgG” value in data set [1] (OVA-challenged mice) is “not changed”. In addition, the “goblet cells, inflammation infiltration and epithelial thickness in central airway (histology)” value in data set [1] (OVA-challenged mice, 10 mg/kg i.p.) is “weekended”. Besides, the average inflammation score entry in data set [1] (OVA-challenged mice, versus non-treated group) is on record as “significantly lower”. Also, the “number of eosinophils and neutrophils in BALF” value in data set [1] (OVA-sensitized mice, 10 mg/kg i.p.) is listed as “reduced”. For the same molecule, in data set [1] (setting [2]), the OVA-induced airway sensitivity result is on record as “significantly reduced” and the “PAS positive cells in the airway epithelium” value is “significantly reduced”. The “OVA-induced airway sensitivity / airway resistance” value in data set [1] is given as “significantly weakened”. The “cytotoxicity in CHO-K1 cells” value in the data set with CHO-K1 cells is “did not show cytotoxicity up to 30 μM”.
